Measured values taken from article PMC10003010, “A Unique In Vitro Assay to Investigate ABCB4 Transport Function” (International Journal of Molecular Sciences, 2023).
Entries after “also recorded” stand apart in the source; their conditions may differ. Where two headings read alike, the source gives them in different places.

Key:
[1] = ref FDA Liver Toxicity Knowledge Base (LTKB); cited from earlier work
human ABCB4 [2] = molecular target: T1, human ABCB4 (Homo sapiens, UniProt P21439); experiment: Inhibition of ABCB4-mediated digoxin transport, bidirectional assay in Abcb1KO-MDCKII-ABCB4 cells; assay type: cell-based
T1 construct: expressed in transfected cells; host or cells: Abcb1KO-MDCKII (canine kidney, Abcb1 knockout), lentiviral transduction, single clone
T1 sequence (P21439 1-1279 isoform P21439-2): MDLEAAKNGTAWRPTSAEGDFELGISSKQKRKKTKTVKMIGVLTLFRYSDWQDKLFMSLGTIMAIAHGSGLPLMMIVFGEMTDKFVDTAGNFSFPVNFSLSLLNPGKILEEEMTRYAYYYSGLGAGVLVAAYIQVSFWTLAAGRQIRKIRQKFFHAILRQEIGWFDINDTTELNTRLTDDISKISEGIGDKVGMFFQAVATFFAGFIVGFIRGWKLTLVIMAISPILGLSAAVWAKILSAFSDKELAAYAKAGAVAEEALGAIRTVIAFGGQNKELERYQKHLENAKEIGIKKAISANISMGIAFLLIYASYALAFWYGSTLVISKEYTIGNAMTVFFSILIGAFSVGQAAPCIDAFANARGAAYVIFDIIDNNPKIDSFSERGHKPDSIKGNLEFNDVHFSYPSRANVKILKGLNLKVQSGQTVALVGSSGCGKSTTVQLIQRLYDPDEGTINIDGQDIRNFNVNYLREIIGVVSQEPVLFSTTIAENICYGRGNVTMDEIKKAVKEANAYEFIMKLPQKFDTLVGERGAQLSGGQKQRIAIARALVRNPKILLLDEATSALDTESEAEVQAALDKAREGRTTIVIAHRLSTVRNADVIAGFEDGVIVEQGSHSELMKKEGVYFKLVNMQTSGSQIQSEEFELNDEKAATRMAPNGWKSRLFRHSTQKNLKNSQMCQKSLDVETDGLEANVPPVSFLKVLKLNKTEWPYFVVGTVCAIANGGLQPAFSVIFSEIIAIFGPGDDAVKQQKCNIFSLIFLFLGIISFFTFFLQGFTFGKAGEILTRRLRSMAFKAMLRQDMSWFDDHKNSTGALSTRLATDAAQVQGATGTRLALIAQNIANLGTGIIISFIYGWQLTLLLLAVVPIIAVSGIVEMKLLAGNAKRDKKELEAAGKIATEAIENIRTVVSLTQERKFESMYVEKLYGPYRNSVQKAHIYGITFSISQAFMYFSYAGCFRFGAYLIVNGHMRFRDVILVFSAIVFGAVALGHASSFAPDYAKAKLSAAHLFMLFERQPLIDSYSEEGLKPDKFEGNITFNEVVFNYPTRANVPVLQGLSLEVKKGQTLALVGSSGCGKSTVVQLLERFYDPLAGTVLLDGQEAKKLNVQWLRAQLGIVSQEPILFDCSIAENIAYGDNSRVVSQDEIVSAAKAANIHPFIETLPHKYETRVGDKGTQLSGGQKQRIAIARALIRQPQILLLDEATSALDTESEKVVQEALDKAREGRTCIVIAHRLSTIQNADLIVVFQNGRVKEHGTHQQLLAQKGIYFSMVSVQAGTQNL

ABCB4 [3] = conditions: read-out: In Vitro Literature Data (IC50), cited from earlier work
ABCB1 = ABCB1 (Homo sapiens, UniProt P08183); conditions: Y/N; cited from earlier work
Chain of ABCB1 (P08183 whole entry): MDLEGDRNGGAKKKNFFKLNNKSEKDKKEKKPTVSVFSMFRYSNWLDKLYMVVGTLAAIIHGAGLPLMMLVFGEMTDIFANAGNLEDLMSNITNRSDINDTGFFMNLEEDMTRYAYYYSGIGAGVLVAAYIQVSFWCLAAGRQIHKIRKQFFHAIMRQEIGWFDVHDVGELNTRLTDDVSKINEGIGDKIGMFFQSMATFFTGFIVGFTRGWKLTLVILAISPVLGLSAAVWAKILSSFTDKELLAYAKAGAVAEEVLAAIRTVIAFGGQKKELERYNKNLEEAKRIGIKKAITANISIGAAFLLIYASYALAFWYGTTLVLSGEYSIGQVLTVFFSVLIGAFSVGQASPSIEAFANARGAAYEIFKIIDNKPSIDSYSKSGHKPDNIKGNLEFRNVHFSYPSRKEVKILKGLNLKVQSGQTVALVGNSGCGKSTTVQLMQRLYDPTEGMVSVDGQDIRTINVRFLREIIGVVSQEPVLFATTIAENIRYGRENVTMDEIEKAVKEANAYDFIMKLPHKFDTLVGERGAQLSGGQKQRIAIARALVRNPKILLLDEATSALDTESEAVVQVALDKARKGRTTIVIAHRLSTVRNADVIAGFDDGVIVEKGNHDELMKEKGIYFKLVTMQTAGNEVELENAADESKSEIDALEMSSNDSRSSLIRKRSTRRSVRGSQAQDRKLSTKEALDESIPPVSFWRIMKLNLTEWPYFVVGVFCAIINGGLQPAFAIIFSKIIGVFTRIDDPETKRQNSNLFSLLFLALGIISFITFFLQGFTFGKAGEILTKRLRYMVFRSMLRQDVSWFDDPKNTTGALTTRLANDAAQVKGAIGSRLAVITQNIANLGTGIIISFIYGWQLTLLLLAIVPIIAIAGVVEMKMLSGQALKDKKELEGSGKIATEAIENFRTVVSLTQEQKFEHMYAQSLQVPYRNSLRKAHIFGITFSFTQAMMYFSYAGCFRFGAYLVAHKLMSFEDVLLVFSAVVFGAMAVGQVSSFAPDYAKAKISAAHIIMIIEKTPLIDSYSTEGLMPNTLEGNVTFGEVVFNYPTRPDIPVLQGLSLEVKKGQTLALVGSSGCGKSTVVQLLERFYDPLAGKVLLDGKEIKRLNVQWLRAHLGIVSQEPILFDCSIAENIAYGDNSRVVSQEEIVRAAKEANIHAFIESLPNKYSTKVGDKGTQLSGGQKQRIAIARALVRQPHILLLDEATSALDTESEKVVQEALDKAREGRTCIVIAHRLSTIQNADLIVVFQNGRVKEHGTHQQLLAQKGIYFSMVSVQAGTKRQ

human ABCB4 [4] = molecular target: T1, human ABCB4; experiment: Bidirectional transport (efflux ratio) in Abcb1KO-MDCKII-ABCB4 cells, substrate test; assay type: in vitro ADME; conditions: for ABCB4 substrate status, in words: bidirectional transport, ER cut-off 2
canine Abcb1 [5] = molecular target: T2, canine Abcb1 (Canis lupus familiaris, UniProt C0KKU9); experiment: in vitro; conditions: dog, MDCK, pH 7.4
T2 sequence (C0KKU9 1-1281): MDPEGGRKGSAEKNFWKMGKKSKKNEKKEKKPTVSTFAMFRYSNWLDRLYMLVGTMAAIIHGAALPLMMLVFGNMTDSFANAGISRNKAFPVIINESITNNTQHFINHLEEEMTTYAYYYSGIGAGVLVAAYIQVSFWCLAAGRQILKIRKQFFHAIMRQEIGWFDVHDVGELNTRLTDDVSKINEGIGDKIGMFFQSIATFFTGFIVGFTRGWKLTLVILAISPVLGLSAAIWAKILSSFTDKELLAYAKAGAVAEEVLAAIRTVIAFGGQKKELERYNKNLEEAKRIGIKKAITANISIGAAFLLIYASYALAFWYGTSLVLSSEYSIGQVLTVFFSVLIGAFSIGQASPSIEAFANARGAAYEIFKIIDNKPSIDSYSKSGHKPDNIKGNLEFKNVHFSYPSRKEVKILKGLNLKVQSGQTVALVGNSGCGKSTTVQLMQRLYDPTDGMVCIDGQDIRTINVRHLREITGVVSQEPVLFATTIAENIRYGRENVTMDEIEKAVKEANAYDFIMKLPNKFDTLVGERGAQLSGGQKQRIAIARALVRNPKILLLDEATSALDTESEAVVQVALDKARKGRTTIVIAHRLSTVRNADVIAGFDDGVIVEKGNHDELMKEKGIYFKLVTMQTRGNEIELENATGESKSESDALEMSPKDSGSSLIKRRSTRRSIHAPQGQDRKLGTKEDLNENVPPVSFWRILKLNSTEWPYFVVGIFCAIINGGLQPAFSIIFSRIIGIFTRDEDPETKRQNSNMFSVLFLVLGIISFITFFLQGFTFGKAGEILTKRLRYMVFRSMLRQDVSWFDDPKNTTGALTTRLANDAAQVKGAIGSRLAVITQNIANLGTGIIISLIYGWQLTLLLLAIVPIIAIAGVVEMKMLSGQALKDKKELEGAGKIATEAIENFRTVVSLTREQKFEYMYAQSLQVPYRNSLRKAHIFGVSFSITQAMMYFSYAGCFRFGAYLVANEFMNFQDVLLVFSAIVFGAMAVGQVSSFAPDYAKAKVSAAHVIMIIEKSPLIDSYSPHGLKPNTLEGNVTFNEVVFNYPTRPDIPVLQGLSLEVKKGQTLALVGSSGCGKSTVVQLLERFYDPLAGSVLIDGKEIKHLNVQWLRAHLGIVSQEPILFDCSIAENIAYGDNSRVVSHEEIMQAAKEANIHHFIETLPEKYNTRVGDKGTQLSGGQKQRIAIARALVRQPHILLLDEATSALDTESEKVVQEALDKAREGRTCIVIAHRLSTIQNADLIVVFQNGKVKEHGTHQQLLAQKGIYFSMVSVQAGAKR

ABCB4 [6] = conditions: cited from earlier work; for IC50: read-out: In Vitro Literature Data (IC50)
ABCB4 [7] = conditions: cited from earlier work; for In Vitro Literature Data, inhibitor (IC50 value was not determined): digoxin transport in ABCB4-transfected LLC-PK1 cells
canine Abcb1 [8] = molecular target: T2, canine Abcb1; set-up: To confirm the impact of endogenous canine Abcb1 on the efflux ratio (ER); host or cells: MDCKII parental (wildtype) cells; method as in PMID 31266750; conditions: previous study; cited from earlier work
[9] = digoxin 1 µM probe, ABCB4 cell monolayers, samples at 3 h, read-out: IC50 (µM), Based on Digoxin ER
[10] = primary hepatocyte assay, labeled PC

Effect on ABCB4-mediated digoxin transport, in words (human ABCB4 [2]; digoxin 1 µM probe)	IC50 (human ABCB4 [2]; [9])	Compound	DILI Concern [1]	further results
no interaction	> 20 µM	CC(C)OC(=O)C(C)(C)Oc1ccc(C(=O)c2ccc(Cl)cc2)cc1 [fenofibrate]		
did not inhibit ABCB4	> 5 µM	CC[C@H](Nc1ncnc2[nH]cnc12)c1nc2cccc(F)c2c(=O)n1-c1ccccc1 [idelalisib]		
	0.17 µM	CCC(C)n1ncn(-c2ccc(N3CCN(c4ccc(OCC5COC(Cn6cncn6)(c6ccc(Cl)cc6Cl)O5)cc4)CC3)cc2)c1=O (stereo not drawn) [itraconazole]	Most DILI concern	Effect on ABCB4-mediated transport of gefitinib (human ABCB4 [4]; itraconazole 2 µM, gefitinib 0.5 µM): inhibited; In Vitro Literature Data, % inhibition at 1 µM (ABCB4 [6]; 1 µM): 50%; IC50 (ABCB4 [6]): 22.5 µM; IC50 (ABCB4 [3]; [10]): 2.1 µM; In Vitro Literature Data, % inhibition at 10 µM (ABCB4 [7]; 10 µM, LLC-PK1-ABCB4 cells): 30%
ABCB4 inhibitors	0.6 µM	Cc1cccc(C)c1OCC(=O)N[C@@H](Cc1ccccc1)[C@@H](O)C[C@H](Cc1ccccc1)NC(=O)[C@H](C(C)C)N1CCCNC1=O [lopinavir]		
no effect	> 20 µM	Nc1cc(N2CCCCC2)nc(N)[n+]1[O-] [minoxidil]		IC50 (ABCB4 [3]; human primary hepatocyte assay): > 300 µM
no interaction	> 10 µM	COc1ccnc(C[S+]([O-])c2nc3ccc(OC(F)F)cc3[nH]2)c1OC (stereo not drawn) [pantoprazole]	Less DILI concern	
	16.1 µM	COc1cc2nc(N3CCN(C(=O)c4ccco4)CC3)nc(N)c2cc1OC [prazosin]		ABCB4 substrate status, in words (human ABCB4 [4]): minor ABCB4-mediated directional transport
	1.09 µM	C=C[C@H]1C[N@@]2CC[C@H]1C[C@@H]2[C@@H](O)c1ccnc2ccc(OC)cc12 [quinidine]		efflux ratio at 1 µM (human ABCB4 [4]; human, pH 7.4, 1 µM, ABCB4 cells, read-out: Efflux ratio (ER)): < 2
	1.4 µM	CC(C)(C)NC(=O)[C@@H]1C[C@@H]2CCCC[C@@H]2CN1C[C@@H](O)[C@H](Cc1ccccc1)NC(=O)[C@H](CC(N)=O)NC(=O)c1ccc2ccccc2n1 [saquinavir]	Less DILI concern	
	4.42 µM	CNC(=O)c1cc(Oc2ccc(NC(=O)Nc3ccc(Cl)c(C(F)(F)F)c3)cc2)ccn1 [sorafenib]	Most DILI concern	

Continued, compound first:

Compound	Effect on ABCB4-mediated digoxin transport, in words (human ABCB4 [2]; digoxin 1 µM probe)	IC50 (human ABCB4 [2]; [9])	DILI Concern [1]	further results
CC(=O)Oc1ccccc1C(=O)O [acetylsalicylic acid]	no effect	> 100 µM	No DILI concern	IC50 (ABCB4 [3]; human primary hepatocyte assay): > 300 µM
CCCCc1oc2ccccc2c1C(=O)c1cc(I)c(OCCN(CC)CC)c(I)c1 [amiodarone]		> 10 µM		
CCOC(=O)C1=C(COCCN)NC(C)=C(C(=O)OC)C1c1ccccc1Cl (stereo not drawn) [amlodipine]	weak interaction	17.9 µM		
C=C[C@@H]1C[C@]1(NC(=O)[C@@H]1C[C@@H](Oc2ncc(OC)c3ccc(Cl)cc23)CN1C(=O)[C@@H](NC(=O)OC(C)(C)C)C(C)(C)C)C(=O)NS(=O)(=O)C1CC1 [asunaprevir]	ABCB4 inhibitors			
CCc1oc2ccccc2c1C(=O)c1cc(Br)c(O)c(Br)c1 [benzbromarone]			Most DILI concern	IC50 (human ABCB4 [2]): 19.9 µM; IC50 (ABCB4 [3]; human primary hepatocyte assay): 0.4 µM
NC(=O)N1c2ccccc2C=Cc2ccccc21 [carbamazepine]		> 80 µM	Most DILI concern	ABCB1 Interactor (ABCB1): Conflicting information [50]; IC50 (ABCB4 [3]; human primary hepatocyte assay): > 300 µM
COc1ccccc1OCCNCC(O)COc1cccc2[nH]c3ccccc3c12 (stereo not drawn) [carvedilol]		0.7 µM	Less DILI concern	
CC[C@H]1OC(=O)[C@H](C)[C@@H](O[C@H]2C[C@@](C)(OC)[C@@H](O)[C@H](C)O2)[C@H](C)[C@@H](O[C@@H]2O[C@H](C)C[C@H](N(C)C)[C@H]2O)[C@](C)(OC)C[C@@H](C)C(=O)[C@H](C)[C@@H](O)[C@]1(C)O [clarithromycin]		> 80 µM	Most DILI concern	
CC(C)CN(C[C@@H](O)[C@H](Cc1ccccc1)NC(=O)O[C@H]1CO[C@H]2OCC[C@H]21)S(=O)(=O)c1ccc(N)cc1 [darunavir]	ABCB4 inhibitors	> 10 µM		inhibition at 10 µM (human ABCB4 [2]; read-out: % inhibition of ABCB4-mediated digoxin transport at 10 µM, 10 µM test drug, digoxin 1 µM): 60%
C[C@H]1O[C@@H](O[C@H]2[C@@H](O)C[C@H](O[C@H]3[C@@H](O)C[C@H](O[C@H]4CC[C@@]5(C)[C@H](CC[C@@H]6[C@@H]5C[C@@H](O)[C@]5(C)[C@@H](C7=CC(=O)OC7)CC[C@]65O)C4)O[C@@H]3C)O[C@@H]2C)C[C@H](O)[C@@H]1O [digoxin]				ABCB4 substrate status, in words (human ABCB4 [4]): shared substrate for ABCB1 and ABCB4; efflux ratio at 1 µM (canine Abcb1 [5]): 4.74 ± 0.15
COc1ccc([C@@H]2Sc3ccccc3N(CCN(C)C)C(=O)[C@@H]2OC(C)=O)cc1 [diltiazem]		48.6 µM		
COc1cc2c(cc1OC)CN(CCc1ccc(NC(=O)c3cccc4c(=O)c5cccc(OC)c5[nH]c34)cc1)CC2 [elacridar]	strong concentration-dependent inhibitory effect	0.15 µM		
C#Cc1cccc(Nc2ncnc3cc(OCCOC)c(OCCOC)cc23)c1 [erlotinib]		> 5 µM	Most DILI concern	
CCOC(=O)C1=C(C)NC(C)=C(C(=O)OC)C1c1cccc(Cl)c1Cl (stereo not drawn) [felodipine]	no interaction	> 30 µM		
OC(Cn1cncn1)(Cn1cncn1)c1ccc(F)cc1F [fluconazole]			Most DILI concern	IC50 (human ABCB4 [2]): > 3 µM; IC50 (ABCB4 [3]; human primary hepatocyte assay): > 300 µM
CC(=O)N1CCN(c2ccc(OCC3COC(Cn4ccnc4)(c4ccc(Cl)cc4Cl)O3)cc2)CC1 (stereo not drawn) [ketoconazole]			Most DILI concern	IC50 (ABCB4 [6]): 4.6 µM; IC50 (human ABCB4 [2]): 0.56 µM
CN(Cc1cnc2nc(N)nc(N)c2n1)c1ccc(C(=O)N[C@@H](CCC(=O)O)C(=O)O)cc1 [methotrexate]	did not detect interaction; also recorded: did not show inhibition	> 10 µM	Most DILI concern	IC50 (ABCB4 [3]; human primary hepatocyte assay): 3.1 µM
COCC(=O)O[C@]1(CCN(C)CCCc2nc3ccccc3[nH]2)CCc2cc(F)ccc2[C@@H]1C(C)C [mibefradil]	strong concentration-dependent inhibitory effect	0.4 µM		
CC(C)c1nc(CN(C)C(=O)N[C@H](C(=O)N[C@@H](Cc2ccccc2)C[C@H](O)[C@H](Cc2ccccc2)NC(=O)OCc2cncs2)C(C)C)cs1 [ritonavir]			Most DILI concern	IC50 (ABCB4 [3]; human primary hepatocyte assay): […]; IC50 (ABCB4 [3]; [10]): […]
C/C=C/C[C@@H](C)C(=O)[C@H]1C(=O)N[C@@H](C(C)C)C(=O)N(C)CC(=O)N(C)[C@@H](CC(C)C)C(=O)N[C@@H](C(C)C)C(=O)N(C)[C@@H](CC(C)C)C(=O)N[C@@H](C)C(=O)N[C@H](C)C(=O)N(C)[C@@H](CC(C)C)C(=O)N(C)[C@@H](CC(C)C)C(=O)N(C)[C@@H](C(C)C)C(=O)N1C [valspodar]	potent ABCB4 inhibitor			IC50 (human ABCB4 [2]): 0.15 µM; In Vitro Literature Data, inhibitor (IC50 value was not determined) (ABCB4 [7]): Inhibitor ^d [16]
COc1ccc(CCN(C)CCCC(C#N)(c2ccc(OC)c(OC)c2)C(C)C)cc1OC (stereo not drawn) [verapamil]				In Vitro Literature Data, inhibitor (IC50 value was not determined) (ABCB4 [7]): inhibitor
O[C@@H](COc1cccc2ncccc12)CN1CCN([C@@H]2c3ccccc3[C@@H]3[C@H](c4ccccc42)C3(F)F)CC1 [zosuquidar]	strong concentration-dependent inhibitory effect	0.07 µM		
ivermectin	ABCB4 inhibitor	0.53 µM	Less DILI concern	In Vitro Literature Data, substrate (ABCB4 [7]; LLC-PK1-ABCB4 cells): Substrate [16]
maraviroc				Affinity for endogenous canine Abcb1 in MDCKII cell lines, in words (canine Abcb1 [8]): strong affinity
